Where “and” joins values, the source holds several entries; their conditions need not be identical. Equal entries are not always repeated. Where two headings read alike, the source gives them in different places.
Experiments:
Kv7.1/KCNE1 = target: T1, Kv7.1/KCNE1 (Homo sapiens, UniProt P51787); test: G(V) shift of Kv7.1 co-expressed with KCNE1 in Xenopus oocytes, two-electrode voltage-clamp; type: cell-based; conditions: for ΔV1/2 ± SEM (G(V) shift): Kv7.1/E1; for pKa: human, Xenopus oocytes co-expressing human Kv7.1 and KCNE1, read-out: apparent pKa (pH of c0.5)
T1 construct: expressed in transfected cells; host or cells: Xenopus laevis oocytes (cRNA co-injection)
Excerpt: (§1) cDNAs encoding human Kv7.1 (GEnBAnk Acc. No. NM_000218) and KCNE1 (NM_000219) were subcloned into the expression vectors pGEM or pXOOM, containing the 5′- and 3′-untranslated regions for Xenopus laevis β-globin as well as a poly-A segment (Jespersen et al., Biotechniques 32, 536-538, 540 (2002)). The truncated KCNE1 construct KCNE1ΔC was constructed by introducing a Stop codon at position 67 using Quikchange site-directed mutagenesis kit (Qiagen). The construct was fully sequenced to ensure proper mutation and absence of unwanted mutations (sequencing by Genewiz). The concatemers E1-Kv7.1-Kv7.1 and E1-Kv7.1 were provided by Dr. R. S. Kass at Columbia University, and can be prepared as described in Chan et al. Journal of General Physiology 132(2), 135-144, (2012)). The E1-Kv7.1 construct was made by linking the C-terminus of KCNE1 to the N-terminus of KCNQ1. The E1-Kv7.1-Kv7.1 construct was made by digesting the E1-Kv7.1 and a Kv7.1-Kv7.1 dimer with Xho1 and inserting the 2-kb fragment from the Kv7.1-Kv7.1 dimer digest into the cut KCNE1-Kv7.1 construct. The DNA encoding E1-Kv7.1-Kv7.1 and E1-Kv7.1 were in the pGEM vector and contained mutations to make the constructs suitable for voltage-clamp fluorometry recordings (Wang et al., J Biol Chem 273, 34069-34074 (1998)). The original KCNE1 and Kv7.1 sequences were therefore removed, one at a time, from the pGEM vector using different restriction enzymes (New England Biolabs). Sequences were separated using gel electrophoresis and harvested using Qiagen gel extraction kit. Corresponding wild type sequences were ligated into the construct using T4 Ligase (New England Biolabs). To ensure correct sequence the constructs were sequenced (Genewiz) and tested with different restriction enzymes in combination with gel electrophoresis to measure length and conformation of the gene. cRNA for injection of all constructs was prepared from linearized DNA using the T7 mMessage mMachine transcription kit (Ambion) according to the manufactures instructions. RNA quality was checked by gel electrophoresis, and RNA concentrations were quantified by UV spectroscopy.
(§2) Xenopus laevis oocytes were isolated and maintained (Bentzen, B. H. et al. Neuropharmacology 51, 1068-1077 (2006)). Approximately 50 nl cRNA (50 ng Kv7.1, KCNE1-Kv7.1-Kv7.1 or KCNE1-Kv7.1 alternatively 25 ng Kv7.1 together with 8 ng KCNE1 or KCNE1ΔC) was injected into each oocyte using a Nanojet microinjector (Drummond). Electrophysiological experiments were made 2-5 days after injection. Currents were measured at room temperature with the two-electrode voltage-clamp technique (CA-1B Dagan amplifier). Currents were sampled at 1-3.3 kHz, filtered at 500 Hz, and not leakage corrected. […] A control solution containing (in mM): 88 NaCl, 1 KCl, 15 HEPES, 0.4 CaCl2, and 0.8 MgCl2 was used. NaOH was added to adjust pH to 7.4, yielding a final sodium concentration of about 100 mM. The holding voltage was generally set to −80 mV. Activation curves were generally elicited by stepping to test voltages between −110 and +60 mV (2-4 s durations and 10 mV increments) followed by a tail voltage of −30 mV. For recordings of Kv7.1 at pH 9 and pH 10, the holding voltage was set to more negative voltages because the largest DHA-induced shifts induced channel opening already at −80 mV. […] Therefore, in arachidonyl amine experiments a brief hyperpolarizing pulse of 50 ms to −120 mV was introduced between the test voltage and the tail voltage to relief the channels from inactivation.
(§3) Test compounds were dissolved in 99.5% ethanol to a concentration of 100 mM and stored at −20° C. (Börjesson et al., Biophys J 95, 2242-2253 (2008); Börjesson et al., Biophys J 98, 396-403 (2010)). Shortly before experiments, test compounds were diluted in control solution to the desired test concentration. Pure control solution was added to the bath using a gravity-driven perfusion system. […]

Kv7.1 = Kv7.1 (Homo sapiens, UniProt P51787); test: G(V) shift of Kv7.1 expressed in Xenopus laevis oocytes, two-electrode voltage-clamp; type: cell-based
Excerpt: as §1, §2, §3

KCNE1-Kv7.1-Kv7.1 = KCNE1-Kv7.1-Kv7.1 (Homo sapiens, UniProt P15382+P51787); test: G(V) shift of KCNE1-Kv7.1-Kv7.1 concatemer (4:2 stoichiometry) in Xenopus oocytes; type: cell-based; conditions: 70 μM; for ΔV1/2 ± SEM (G(V) shift): E1-Kv7.1-Kv7.1
Excerpt: (§4) As used herein, the terms “KCNE1-Kv7.1” and “KCNE1-Kv7.1-Kv7.1” refer to concatemers of Kv7.1 and KCNE1 in 4:4 and 4:2 stoichiometry, respectively.
as §1, with “The original KCNE1 and Kv7.1 sequences were therefore removed, one at a time, from the pGEM vector using different restriction enzymes (New England Biolabs). Sequences were separated using gel electrophoresis and harvested using Qiagen gel extraction kit. Corresponding wild type sequences were ligated into the construct using T4 Ligase (New England Biolabs). To ensure correct sequence the constructs were sequenced (Genewiz) and tested with different restriction enzymes in combination with gel electrophoresis to measure length and conformation of the gene. cRNA for injection of all constructs was prepared from linearized DNA using the T7 mMessage mMachine transcription kit (Ambion) according to the manufactures instructions.” left out
(§5) Xenopus laevis oocytes were isolated and maintained (Bentzen, B. H. et al. Neuropharmacology 51, 1068-1077 (2006)). […] Currents were measured at room temperature with the two-electrode voltage-clamp technique (CA-1B Dagan amplifier). […]
(§6) Xenopus laevis oocyte data were acquired using either Pulse software (HEKA) or Clampex 10.2 (Axon Instruments), and analyzed with Clampfit 10 (Axon Instruments) and GraphPad Prism 4 (GraphPad Software). […]

KCNE1-Kv7.1 = KCNE1-Kv7.1 (Homo sapiens, UniProt P15382+P51787); test: G(V) shift of KCNE1-Kv7.1 concatemer (4:4 stoichiometry) in Xenopus oocytes; type: cell-based; conditions: 70 μM; for ΔV1/2 ± SEM (G(V) shift): E1-Kv7.1
Excerpt: as §4
as §1, with “The original KCNE1 and Kv7.1 sequences were therefore removed, one at a time, from the pGEM vector using different restriction enzymes (New England Biolabs). Sequences were separated using gel electrophoresis and harvested using Qiagen gel extraction kit. Corresponding wild type sequences were ligated into the construct using T4 Ligase (New England Biolabs). To ensure correct sequence the constructs were sequenced (Genewiz) and tested with different restriction enzymes in combination with gel electrophoresis to measure length and conformation of the gene. cRNA for injection of all constructs was prepared from linearized DNA using the T7 mMessage mMachine transcription kit (Ambion) according to the manufactures instructions.” left out
as §5, §6

intact guinea pig hearts = test: Restoration of QT interval in intact hearts with E4031-induced Long QT; conditions: E4031
Excerpt: Long QT syndrome was induced in intact guinea pig hearts by administration of the drug E4031, a HERG channel blocker.

in vitro = conditions: human, Caco-2

For `CCCCC/C=C\C/C=C\C/C=C\C/C=C\CCCCN` [AA+, arachidonyl amine], the “ΔV1/2 ± SEM (G(V) shift)” value (Kv7.1/KCNE1; 70 μM, pH 7.4) was “+22.6 ± 1.9 mV”, the “ΔV1/2 ± SEM (G(V) shift)” value (Kv7.1/KCNE1; 70 μM, pH 7.4, listed as arachidonyl amine) was “+22.6±1.9 mV” and the “G(V) shift of a representative cell (control curve shifted)” value (shortened to “G(V) shift of a representative cell”) (Kv7.1/KCNE1; Kv7.1/KCNE1, 70 μM, pH 7.4) was “+28 mV”. The “G(V) shift” value (Kv7.1/KCNE1; Kv7.1/KCNE1, pH 7) was “about +25 mV”, the Kv7.1 channel inactivation (Kv7.1; Kv7.1) was “induced Kv7.1 channel inactivation” and the “ΔV1/2 ± SEM (G(V) shift)” value (Kv7.1; Kv7.1, 70 μM, pH 7.4) was “+9.7 ± 2.1 mV”. The “ΔV1/2 ± SEM (G(V) shift)” value (Kv7.1; Kv7.1, 70 μM, pH 7.4, listed as Arachidonyl amine) was “+9.7±2.1 mV” and the “ΔV1/2 ± SEM (G(V) shift)” value (Kv7.1; Kv7.1, 70 μM, pH 7.4, listed as arachidonyl amine) was “+9.7±2.1 mV”.
With `CC/C=C\C/C=C\C/C=C\C/C=C\C/C=C\C/C=C\CCC(=O)O` [DHA, 4,7,10,13,16,19-all-cis-docosahexaenoic acid] the “c0.5 (pH-dependence of the G(V) shift)” value (Kv7.1/KCNE1; Kv7.1/KCNE1, 70 μM) was 3.3*10^−9, the “ΔVmax (pH-dependence of the G(V) shift)” value (Kv7.1/KCNE1; Kv7.1/KCNE1, 70 μM) was −26.6 mV and the “G(V) shift of a representative cell” value (Kv7.1/KCNE1; Kv7.1/KCNE1, 70 μM, pH 9) was −35 mV. The pKa (Kv7.1/KCNE1; Kv7.1/KCNE1, 70 μM) was 8.5, the “G(V) shift of a representative cell” value (KCNE1-Kv7.1-Kv7.1; KCNE1-Kv7.1-Kv7.1) was “+7 mV” and the “G(V) shift of a representative cell” value (KCNE1-Kv7.1; KCNE1-Kv7.1) was “+5.5 mV”. For the same compound, the maximal conductance (Kv7.1; Kv7.1) was “without affecting maximal conductance”, the “G(V) shift” value (Kv7.1; Kv7.1, 7 μM) was −3.0±0.5 mV and the “G(V) shift predicted from the concentration-response curve” value (Kv7.1; Kv7.1, 35 μM DHA alone) was −6.5 mV. For the same compound, the “c0.5 (pH-dependence of the G(V) shift)” value (Kv7.1; Kv7.1, 70 μM) was 1.8*10^−8, the “ΔVmax (pH-dependence of the G(V) shift)” value (Kv7.1; Kv7.1, 70 μM) was −30.7 mV and the “G(V) shift” value (Kv7.1; Kv7.1, 70 μM, pH 10) was “about −30 mV”. For the same compound, the “G(V) shift” value (Kv7.1; Kv7.1, external pH 6.5) was “abolishes the DHA effect”, the “estimated maximum shift ΔVmax (concentration dependence)” value (Kv7.1; Kv7.1, pH 7.4) was −15.8±2.3 mV and −15.8 mV and the EC50 (Kv7.1; Kv7.1, pH 7.4, read-out: c0.5, concentration causing 50% of the maximum shift) was 50 ± 20 µM. For the same compound, the “ΔVmax (concentration-response)” value (Kv7.1; Kv7.1, pH 9.0) was −27.7 mV, the EC50 (Kv7.1; Kv7.1, pH 9.0, read-out: C0.5 (concentration-response)) was 10 µM and the pKa (Kv7.1; human, Xenopus laevis oocytes expressing human Kv7.1, Kv7.1, 70 μM, read-out: apparent pKa as reported by the shift of the G(V) relation) was about 7.7.
In the case of `CC/C=C\C/C=C\C/C=C\C/C=C\C/C=C\C/C=C\CCC(=O)NCC(=O)O` [DHA-Gly, docosahexaenoyl glycine], the “apparent pKa lower than that of DHA” value (Kv7.1/KCNE1; Kv7.1/KCNE1) is reported as “about 1.5 pH unit”, the pKa (Kv7.1/KCNE1; Kv7.1/KCNE1, 70 μM) is reported as 6.9 and the “concentration able to restore the QT intervals” value (intact guinea pig hearts) is reported as 10 µM. For the same compound, the efflux ratio (in vitro) was 3.6.
With `CC/C=C\C/C=C\C/C=C\C/C=C\C/C=C\C/C=C\CCC(=O)OC` [DHA-me, 4,7,10,13,16,19-all-cis-docosahexaenoic acid methyl ester] the “ΔV1/2 ± SEM (G(V) shift)” value (KCNE1-Kv7.1-Kv7.1; pH 7.4) was “+5.7 ± 0.9 mV”, the “ΔV1/2 ± SEM (G(V) shift)” value (KCNE1-Kv7.1-Kv7.1; pH 9.0) was “+8.2 ± 2.7 mV” and the “ΔV1/2 ± SEM (G(V) shift)” value (KCNE1-Kv7.1; pH 7.4) was “+5.0 ± 1.3 mV”. For the same compound, the “ΔV1/2 ± SEM (G(V) shift)” value (KCNE1-Kv7.1; pH 9.0) was “+3.6 ± 2.6 mV”, the “ΔV1/2 ± SEM (G(V) shift)” value (Kv7.1; Kv7.1, 70 μM, pH 7.4) was “+2.8 ± 2.5 mV” and the “ΔV1/2 ± SEM (G(V) shift)” value (Kv7.1; Kv7.1, 70 μM, pH 7.4, listed as DHA methyl ester) was “no effect”. For the same compound, the “ΔV1/2 ± SEM (G(V) shift)” value (Kv7.1; Kv7.1, 70 μM, pH 7.4, listed as DHA-Me) was “+2.8±2.5 mV”.
In the case of `CCCCC/C=C\C/C=C\CCCCCCCC(=O)NCC(=O)O` [Lin-Gly, linoleoyl-glycine], the Kv7.1 affinity (Kv7.1; compared among NAA, Lin-Gly, Ste-Gly, DHA-Gly, TTA, HTA) is reported as “lowest affinity”.
In the case of `CCCCCCCC/C=C\CCCCCCCC(=O)O` [OA, oleic acid], the “ΔV1/2 ± SEM (G(V) shift)” value (Kv7.1; Kv7.1, 70 μM, pH 7.4) is reported as −1.0±0.5 mV and the “ΔV1/2 ± SEM (G(V) shift)” value (Kv7.1; Kv7.1, 70 μM, pH 7.4, listed as Oleic acid) is reported as “no effect”.
In the case of `CC(C)NCC(O)COc1cccc2ccccc12` (centres unmarked) [propranolol, reference compound], the “permeability coefficient (Papp)” value (Caco-2 cells) is reported as 20×10^−6 cms^−1.

Source: US20170216240A1, “METHODS FOR MODULATING IKS CHANNEL ACTIVITY” (UNIVERSITY OF MIAMI, priority 2014, published 2017)
